Structures can show the parent of a compound that is named as a salt. Where two headings read alike, the source gives them in different places.

Series [1] concerns the target MMP-13 (Homo sapiens, UniProt P45452). Put plainly: MMP-13 inhibition (thiopeptide or fluorescent peptide substrate). Format: biochemical. The note with it: read-out: MMP-13 IC50.
Series [2] concerns the target TNF-α converting enzyme (TACE) (Homo sapiens, UniProt P78536). Put plainly: TACE inhibition (fluorescent peptidyl substrate). Type of series: biochemical. The settings on record: read-out: TACE IC50.
Method: Using 96-well black microtiter plates, each well receives a solution composed of 10 μL TACE (final concentration 1 μg/mL), 70 μL Tris buffer, pH 7.4 containing 10% glycerol (final concentration 10 mM), and 10 μL of test compound solution in DMSO (final concentration 1 μM, DMSO concentration <1%) and incubated for 10 minutes at room temperature.
The reaction is read (excitation 340 nm, emission 420 nm) for 10 min. and the increase in fluorescence over time is plotted as a linear line. The slope of the line is calculated and represents the reaction rate.
The linearity of the reaction rate is confirmed (r^2>0.85). The mean (x±sem) of the control rate is calculated and compared for statistical significance (p<0.05) with drug-treated rates using Dunnett's multiple comparison test.
The target of series [3] is T1, MMP-1 (Homo sapiens, UniProt P03956).
T1 sequence (P03956 100-469): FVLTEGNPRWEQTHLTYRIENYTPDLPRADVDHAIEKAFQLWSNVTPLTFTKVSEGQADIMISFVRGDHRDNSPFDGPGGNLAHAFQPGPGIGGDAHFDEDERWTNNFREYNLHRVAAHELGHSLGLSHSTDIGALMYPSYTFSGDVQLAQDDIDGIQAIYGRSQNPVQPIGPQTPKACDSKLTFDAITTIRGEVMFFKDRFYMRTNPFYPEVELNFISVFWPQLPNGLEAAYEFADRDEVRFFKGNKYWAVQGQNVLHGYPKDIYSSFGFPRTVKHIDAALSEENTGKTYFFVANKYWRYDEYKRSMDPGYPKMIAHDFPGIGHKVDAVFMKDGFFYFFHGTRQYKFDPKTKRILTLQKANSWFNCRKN
Put plainly: MMP-1 inhibition (thiopeptide or fluorescent peptide substrate). Format: biochemical. The note with it: read-out: MMP-1 IC50.

The target of series [4] is MMP-9 (Homo sapiens, UniProt P14780). Nature of the series: MMP-9 inhibition (thiopeptide or fluorescent peptide substrate). Type of series: biochemical. The note with it: read-out: MMP-9 IC50.
Sequence of MMP-9 (P14780 94-707): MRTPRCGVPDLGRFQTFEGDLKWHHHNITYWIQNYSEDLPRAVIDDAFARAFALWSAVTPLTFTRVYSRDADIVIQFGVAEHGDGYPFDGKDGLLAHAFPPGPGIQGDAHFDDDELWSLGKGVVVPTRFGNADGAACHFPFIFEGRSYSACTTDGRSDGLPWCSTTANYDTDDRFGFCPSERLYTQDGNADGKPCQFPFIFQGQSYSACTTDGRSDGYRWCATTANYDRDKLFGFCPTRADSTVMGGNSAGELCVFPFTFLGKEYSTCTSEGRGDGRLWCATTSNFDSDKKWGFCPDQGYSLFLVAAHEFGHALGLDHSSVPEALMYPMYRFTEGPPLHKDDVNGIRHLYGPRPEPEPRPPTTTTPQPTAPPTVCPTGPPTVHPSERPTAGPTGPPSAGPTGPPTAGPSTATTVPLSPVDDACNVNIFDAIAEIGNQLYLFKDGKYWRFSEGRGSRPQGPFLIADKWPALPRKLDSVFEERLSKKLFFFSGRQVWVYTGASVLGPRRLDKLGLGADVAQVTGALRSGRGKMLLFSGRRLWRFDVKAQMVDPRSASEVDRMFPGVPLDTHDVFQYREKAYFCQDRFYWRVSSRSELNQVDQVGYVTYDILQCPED

Sequence of TNF-α converting enzyme (TACE) (P78536 215-824, species assumed): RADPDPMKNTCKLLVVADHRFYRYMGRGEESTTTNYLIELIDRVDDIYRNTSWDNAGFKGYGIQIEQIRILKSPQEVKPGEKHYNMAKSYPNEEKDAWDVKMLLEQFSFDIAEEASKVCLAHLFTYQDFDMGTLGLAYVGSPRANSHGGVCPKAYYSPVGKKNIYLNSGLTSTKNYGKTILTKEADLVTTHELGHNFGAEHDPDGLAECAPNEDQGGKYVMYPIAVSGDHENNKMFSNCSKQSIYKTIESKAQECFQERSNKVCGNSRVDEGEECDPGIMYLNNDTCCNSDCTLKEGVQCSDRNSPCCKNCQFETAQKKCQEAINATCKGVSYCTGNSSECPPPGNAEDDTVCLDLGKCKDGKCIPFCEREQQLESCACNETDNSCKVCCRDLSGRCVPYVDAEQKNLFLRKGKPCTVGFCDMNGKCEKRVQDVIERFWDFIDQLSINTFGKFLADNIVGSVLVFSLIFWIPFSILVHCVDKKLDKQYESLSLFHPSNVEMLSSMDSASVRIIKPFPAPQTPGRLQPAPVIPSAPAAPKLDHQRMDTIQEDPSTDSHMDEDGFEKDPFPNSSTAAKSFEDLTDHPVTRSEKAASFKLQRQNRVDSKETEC

`CC#CCOc1ccc(S(=O)(=O)N2CCSCCC2C(=O)NO)cc1` (centres unmarked) [Example 294, 4-{[4-(2-Butynyloxy)phenyl]sulfonyl}-N-hydroxy-1,4-thiazepine-5-carboxamide] registered a melting point of 95 to 98 °C.
On the same count and under the same terms, under `CC#CCOc1ccc(S(=O)(=O)N2CCSC3(CCN(Cc4ccccc4)CC3)C2C(=O)NO)cc1` (centres unmarked) (as salt: hydrochloride) [Example 241, 9-Benzyl-4-{[4-(2-butynyloxy)phenyl]sulfonyl}-N-hydroxy-1-thia-4,9-diazaspiro[5.5]undecane-5-carboxamide] stands 151 to 153 °C.
`CC#CCOc1ccc(S(=O)(=O)N(C)C(C(=O)NO)c2ccc(OCCCNC(=O)OCc3ccccc3)cc2)cc1` (centres unmarked) [Example 196, Benzyl 3-{4-[1-[{[4-(2-Butynyloxy)phenyl]sulfonyl}(methyl)amino]-2-(hydroxyamino)-2-oxoethyl]phenoxy}propylcarbamate] gave a melting point of 48 to 50 °C. In addition, the IC50 in series [1] was 31 nM. The IC50 in series [2] stood at 109 nM.
For the compound `CC#CCOc1ccc(S(=O)(=O)N(C)C(C(=O)NO)C(C)(C)SCCn2ccnc2)cc1` (centres unmarked) (as salt: hydrochloride) [Example 144, 2-({[4-(2-Butynyloxy)phenyl]sulfonyl)(methyl)amino]-N-hydroxy-3 Methyl-3-{[2-(1H-imidazol-1-yl)ethyl]sulfanyl}butanamide], the melting point was in the range of 67 to 70 °C.
The same measure, in the same setting: then `CC#CCOc1ccc(S(=O)(=O)N(C)C(C(=O)NO)C(C)(C)SCC(C)N(CC)CC)cc1` (centres unmarked) [Example 148, 2-({[4-(2-Butynyloxy)phenyl]sulfonyl)(methyl)amino]-N-hydroxy-3 Methyl-3-{[2-(diethylamino)propyl]sulfanyl}butanamide], with 65 to 68 °C.
Same read-out and setting: under `CC#CCOc1ccc(S(=O)(=O)NC(C(=O)NO)c2ccc(OCCN3CCCC3)cc2)cc1` (centres unmarked) (as salt: hydrochloride) [Example 205, 2-({[4-(2-Butynyloxy)phenyl]sulfonyl}amino)-N-hydroxy-2-{4-[2-(1-pyrrolidinyl)ethoxy]phenyl}acetamide] stands 70 °C.
Same read-out and setting: then `CC#CCOc1ccc(S(=O)(=O)N(C)C(C(=O)NO)C(C)(C)SCCN2CCCC2)cc1` (centres unmarked) [Example 143, 2-({[4-(2-Butynyloxy)phenyl]sulfonyl)(methyl)amino]-N-hydroxy-3 Methyl-3-{[2(1-pyrrolidinyl)ethyl]sulfanyl}butanamide], with 55 to 57 °C; and `CC#CCOc1ccc(S(=O)(=O)NC(C(=O)NO)C(C)(C)SCC(=O)O)cc1` (centres unmarked) (as salt: sodium) [Example 166, tert-Butyl {[2-({[4-2-Butynyloxy)phenyl]sulfonyl}amino)-3-(hydroxyamino)-1,1-dimethyl-3-oxopropyl]sulfanyl Acetic Acid, Sodium Salt], with 75 °C (dec.).
On to `CC1(C)SCCN(S(=O)(=O)c2ccc(OCC#CCOCc3ccccc3)cc2)C1C(=O)NO` (centres unmarked) [Example 247, 4-[(4-{[4-(Benzyloxy)-2-butynyl]oxy}phenyl)sulfonyl]-N-hydroxy-2,2-dimethyl-3-thiomorpholine Carboxamide], for which the IC50 in series [3] (Table 10) was 53 nM; in series [4] (Table 10), 108 nM; in series [1] (Table 10), 2.5 nM; in series [2] (Table 10), 160 nM.
With `CC#CCOc1ccc(S(=O)(=O)N(C)C(C(=O)NO)c2ccc(OCCCNC(=O)OC(C)(C)C)cc2)cc1` (centres unmarked) [Example 187, tert-Butyl 3-{4-[1-[{[4-(2-Butynyloxy)phenyl]sulfonyl}(methyl)amino]-2-(hydroxyamino)-2-oxoethyl]phenoxy}propylcarbamate], the 50% inhibitory concentration (IC50) in series [3] worked out at 910 nM; in series [4], 46 nM; in series [1], 13 nM; in series [2] it was 199 nM.
Consider `CC#CCOc1ccc(S(=O)(=O)N2C[C@H](C)SC(C)(C)[C@@H]2C(=O)NO)cc1` [Example 272, (3S,6S)-4-{[4-(2-Butynyloxy)phenyl]sulfonyl}-N-hydroxy-2,2,6-trimethyl-3-thiomorpholinecarboxamide], for which the IC50 in series [3] (Table 11) amounted to 7.8 nM; in series [4] (Table 11), 166 nM; in series [1] (Table 11), 8.7 nM; in series [2] (Table 11), 24 nM.
In the case of `CC#CCOc1ccc(S(=O)(=O)N(C)C(C(=O)NO)C(C)(C)SCCn2ccnc2)cc1` (centres unmarked) [Example 144, 2-({[4-(2-Butynyloxy)phenyl]sulfonyl)(methyl)amino]-N-hydroxy-3 Methyl-3-{[2-(1H-imidazol-1-yl)ethyl]sulfanyl}butanamide], the IC50 in series [3] is 16 nM; in series [4], 26 nM; in series [1] it was 5.9 nM; in series [2] it was 60 nM.
Regarding `CC#CCOc1ccc(S(=O)(=O)N(CCN2CCOCC2)CC(=O)NO)cc1` [Example 124, 2-[{[4-(but-2-ynyloxy)Phenyl]sulfonyl}(2-morpholin-4-ylethyl)amino]-N-hydroxyacetamide Hydrochloride], the half-inhibitory concentration (IC50) in series [3] was 1770 nM; in series [4], 211 nM; in series [1], 54 nM; in series [2] it was 13 nM.
`CC#CCOc1ccc(S(=O)(=O)N2CCSC3(CCN(C)CC3)C2C(=O)NO)cc1` (centres unmarked) [Example 242, 9-Methyl-4-{[4-(2-butynyloxy)phenyl]sulfonyl}-N-hydroxy-1-thia-4,9-diazaspiro[5.5]undecane-5-carboxamide]: the melting point lay in the range of 195 to 198 °C. The half-maximal inhibitory concentration (IC50) in series [2] (Table 9) turned out to be 869 nM.
`CC#CCOc1ccc(S(=O)(=O)N(CCC)C(C(=O)NO)C(C)C)cc1` (centres unmarked) [Example 110, 2[(4-but-2-ynyloxy-Benzenesulfonyl)-propyl-amino]-N-hydroxy-3-methyl-butyramide]: the IC50 in series [3] was found to be 196 nM; in series [4] it was 477 nM; in series [1], 153 nM; in series [2], 66 nM.
On to `CC#CCOc1ccc(S(=O)(=O)N(C)C(C(=O)NO)C(C)(C)SCCN2CCOCC2)cc1` (centres unmarked) (as salt: hydrochloride) [Example 140, 2-({[4-(2-Butynyloxy)phenyl]sulfonyl)(methyl)amino]-N-hydroxy-3 Methyl-3-[(2(4-morpholinylethyl)sulfanyl]-butanamide Hydrochloride], for which the melting point is 50 °C (dec.).
Consider `CC#CCOc1ccc(S(=O)(=O)N(CCCN2CCN(C)CC2)C(C(=O)NO)C(C)C)cc1` (centres unmarked) [Example 120, 2-{{[4-(2-Butynyloxy)phenyl]sulfonyl}[3-(4-methyl-1-piperazinyl)propyl]amino}-N-hydroxy-3-methylbutanamide Hydrochloride], for which the IC50 in series [3] turned out to be 111 nM; in series [4], 211 nM; in series [1] it was 161 nM; in series [2], 149 nM.
For `CC#CCOc1ccc(S(=O)(=O)N(CC#CCNC)C(C(=O)NO)C(C)C)cc1` (centres unmarked) [Example 127, 2-{{[4-(2-Butynyloxy)phenyl]sulfonyl}[4-(methylamino)-2-butynyl]amino}-N-hydroxy-3-methylbutanamide], the 50% inhibitory concentration (IC50) in series [3] is 187 nM; in series [4], 53 nM; in series [1], 37 nM; in series [2], 104 nM.
Take `CC1(C)SCCN(S(=O)(=O)c2ccc(OCC#CCCCOC3CCCCO3)cc2)C1C(=O)NO` (centres unmarked) [Example 248, N-Hydroxy-2,2-dimethyl-4-[(4-{[6-(tetrahydro-2H-pyran-2-yloxy)-2-hexynyl]oxy}phenyl)sulfonyl]-3-thiomorpholine Carboxamide]: the half-maximal inhibitory concentration (IC50) worked out at 98 nM in series [3] (Table 10), 48 nM in series [4] (Table 10), 7.3 nM in series [1] (Table 10) and 92 nM in series [2] (Table 10).
On to `CC#CCOc1ccc(S(=O)(=O)N2CCN(C(=O)N(C)c3ccccc3)CC2C(=O)NO)cc1` (centres unmarked) [Example 220, 4-(4-but-2-ynyloxy-Benzenesulfonyl)-piperazine-1,3-dicarboxylic Acid 3-Hydroxyamide 1-(Methyl-phenyl-amide)], for which the half-inhibitory concentration (IC50) in series [3] was found to be 1640 nM; in series [4], 561 nM; in series [1], 62 nM; in series [2], 20 nM.
For `CC#CCOc1ccc(S(=O)(=O)N(C)C(C(=O)NO)c2ccc(OCCN3CCOCC3)cc2)cc1` (centres unmarked) [Example 179, 2-[{[4-(2-Butynyloxy)phenyl]sulfonyl}(methyl)amino]-N-hydroxy-2-{4-[2-(4-morpholinyl)ethoxy]phenyl}acetamide] the same measures were 546 nM, 29 nM, 11 nM and 52 nM.
For `CC#CCOc1ccc(S(=O)(=O)N2CCN(C(=O)Nc3ccc(F)cc3)CC2C(=O)NO)cc1` (centres unmarked) [Example 222, 4-{[4-(2-Butynyloxy)phenyl]sulfonyl}-N-1-(4-fluorophenyl)-N-3-hydroxy-1,3-piperazinedicarboxamide] the same measures were 941 nM, 173 nM, 75 nM and 30 nM.
As for `CC#CCOc1ccc(S(=O)(=O)N2Cc3ccccc3CC2C(=O)NO)cc1` (centres unmarked) [Example 41, 2-(4-but-2-ynyloxy-Benzenesulfonyl)-1,2,3,4-tetrahydro-isoquinoline-3-carboxylic Acid Hydroxyamide], the concentration for half-maximal inhibition (IC50) is 121 nM in series [3], 24 nM in series [4], 10 nM in series [1] and 7 nM in series [2].

(Values after patent US6716833B2, “Acetylenic α-amino acid-based sulfonamide hydroxamic acid tace inhibitors” (priority 1999, dated 2004).)
